Results taken from PubChem BioAssay (NCI).
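Test compounds were applied to cells in 96-well plates for 48 hours at 5 doses. TGI: concentration producing complete growth inhibition.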

Tests used:
Assay in all cases: NCI tumour cell line growth inhibition, 48 h
SK-MEL-5 melanoma = tested on: SK-MEL-5 melanoma
RXF 393 renal = tested on: RXF 393 renal
ACHN renal = tested on: ACHN renal
OVCAR-5 ovarian = tested on: OVCAR-5 ovarian
NCI/ADR-RES ovarian = tested on: NCI/ADR-RES ovarian
HOP-62 NSCLC = tested on: HOP-62 NSCLC
SF-295 CNS = tested on: SF-295 CNS
HL-60(TB) leukemia = tested on: HL-60(TB) leukemia
SNB-19 CNS = tested on: SNB-19 CNS
KM12 colon = tested on: KM12 colon

SMILES | TGI (SK-MEL-5 melanoma) | TGI (RXF 393 renal) | TGI (ACHN renal) | TGI (OVCAR-5 ovarian) | TGI (NCI/ADR-RES ovarian) | TGI (HOP-62 NSCLC) | TGI (SF-295 CNS) | TGI (HL-60(TB) leukemia) | TGI (SNB-19 CNS) | TGI (KM12 colon)
CCOc1cc(C2CC(c3ccc(NS(=O)(=O)c4cc([N+](=O)[O-])ccc4C)cc3)=NN2c2ccc([N+](=O)[O-])cc2[N+](=O)[O-])ccc1O (stereo not given) | 23.1 µM | 27 µM | 21.7 µM | 60.3 µM | 63.8 µM | 27.3 µM | 41.1 µM | > 100 µM | 34.5 µM | > 100 µM
CC1(C)CC(C)(C)C1=NNC(N)=O | > 100 µM | > 100 µM | > 100 µM | > 100 µM | > 100 µM | > 100 µM | > 100 µM | > 100 µM | > 100 µM | > 100 µM
O=C(Nc1nc2ccccc2s1)c1cc([N+](=O)[O-])ccc1Cl | 25.1 µM | 15.9 µM | > 100 µM | > 100 µM | > 76.4 µM | > 100 µM | > 100 µM | 4.41 µM | > 100 µM | > 48.1 µM
Nc1ccccc1CC(O)C(=O)O (stereo not given) | > 100 µM | > 100 µM | > 100 µM | > 100 µM | > 100 µM | > 100 µM | > 100 µM | > 100 µM | > 100 µM | > 100 µM
CC1=NN(c2nc(N)nc(/C(C#N)=C/c3cccn3-c3cc(Cl)cc(Cl)c3)n2)C(C)(C)C1 | > 100 µM | > 100 µM | > 100 µM | > 100 µM | > 100 µM | 67.3 µM | > 100 µM | > 100 µM | > 100 µM | > 100 µM
CC1(O)CC(=O)c2c(cc3ccc(-c4c5c(c(O)c6c(O)cccc46)C(=O)CC(C)(O)C5)c(O)c3c2O)C1 (stereo not given) | 0.495 µM | 1.11 µM | 11 µM | 8.66 µM | 6.63 µM | 1.55 µM | 0.874 µM | 0.772 µM | 4.37 µM | 0.24 µM
O=c1c2cc(I)ccc2nc(-c2cccs2)n1-c1ccc(O)cc1 | 24.3 µM | 30.8 µM | 22.5 µM | 30.2 µM | 56.2 µM | 32.4 µM | 27.4 µM | 36.7 µM | 38.8 µM | 25.1 µM
CCCCCCCCCCCCCCCCCCNc1ccn(C2OC(COP(=O)(O)OCC3OC(n4cc(F)c(NCCCCCCCCCCCCCCCCCC)nc4=O)CC3O)C(O)C2O)c(=O)n1 (stereo not given) | > 100 µM | > 100 µM | > 100 µM | > 100 µM | > 100 µM | > 100 µM | > 100 µM | > 100 µM | > 100 µM | > 100 µM
COc1ccc(C(SC2C(O)C(CO)OC2n2ccc(N)nc2=O)(c2ccccc2)c2ccc(OC)cc2)cc1 (stereo not given) | 25.6 µM | 31.5 µM | > 100 µM | 50.8 µM | 60 µM | 40.5 µM | 49.8 µM | 69.4 µM | 64.4 µM | 71.2 µM
CC(C)(Oc1ccc(Cl)cc1)C(=O)N(C(=O)N1CCC(c2ccccc2)CC1)c1ccccc1 | 65.8 µM | > 100 µM | > 100 µM | > 100 µM | > 100 µM | > 100 µM | > 100 µM | 29 µM | > 100 µM | > 100 µM
COc1ccccc1NC(=O)CC(=O)N1N=C(C)C(N=Nc2ccc(C(=O)O)cc2)C1=O (stereo not given) | > 100 µM | > 100 µM | > 100 µM | > 100 µM | > 100 µM | > 100 µM | > 100 µM | > 100 µM | > 100 µM | > 100 µM
COc1cc(C2c3cc4c(cc3OC(NNC(N)=O)C2C)OCO4)cc(OC)c1O (stereo not given) | 18 µM | > 20.9 µM | > 100 µM | > 100 µM | > 76.1 µM | > 100 µM | > 85.7 µM | 7.84 µM | > 100 µM | > 69.9 µM
COc1ccc(NC(C)=O)cc1N1C(=O)/C(=C\c2cc(OC)c(OC)c(OC)c2)SC1c1ccccc1 (stereo not given) | > 100 µM | > 100 µM | > 100 µM | > 100 µM | > 100 µM | > 100 µM | > 100 µM | 41 µM | > 100 µM | > 100 µM
C=C(C)C(O)C(O)c1c(OC)ccc2ccc(=O)oc12 (stereo not given) | > 100 µM | > 100 µM | > 100 µM | > 100 µM | > 100 µM | > 100 µM | > 100 µM | > 100 µM | > 100 µM | > 100 µM
COc1ccc(-c2cc(-c3ccc(Nc4ccnc5cc(Cl)ccc45)cc3)[nH]c(=O)c2C#N)c2ccccc12 | > 63.4 µM | 28.3 µM | > 100 µM | > 100 µM | > 100 µM | > 53.9 µM | > 50.1 µM | 6.04 µM | > 23.4 µM | > 100 µM
C(CCCCc1nnc(N2CCCCC2)o1)CCCc1nnc(N2CCCCC2)o1 | > 100 µM | > 100 µM | > 100 µM | > 100 µM | > 100 µM | > 100 µM | > 100 µM | > 100 µM | > 100 µM | > 100 µM
Oc1c([Si](c2ccccc2)(c2ccccc2)c2ccccc2)cc2ccccc2c1-c1c(O)c([Si](c2ccccc2)(c2ccccc2)c2ccccc2)cc2ccccc12 | > 100 µM | > 100 µM | > 100 µM | > 100 µM | > 100 µM | > 100 µM | > 100 µM | > 100 µM | > 100 µM | > 100 µM
S=C1SCN(Cc2ccco2)CN1c1ccc(Br)cc1 | 24.5 µM | > 100 µM | 64.2 µM | 34.5 µM | 77.6 µM | 51.9 µM | 28.7 µM | 45.8 µM | 72.2 µM | 31.7 µM
O=C(Nc1ccccc1)N(CCCCN(Cc1ccccc1)C(=O)Nc1ccccc1)Cc1ccccc1 | > 100 µM | > 100 µM | > 100 µM | > 100 µM | > 100 µM | > 100 µM | > 100 µM | > 100 µM | > 100 µM | > 100 µM
CC(=O)Nc1ccc(OC2=CCN(C)CC2)cc1 | > 100 µM | > 100 µM | > 100 µM | > 100 µM | > 100 µM | > 100 µM | > 100 µM | > 100 µM | > 100 µM | > 100 µM
O=C(O)c1ccn(-c2cccc(-n3ccc(C(=O)O)n3)n2)n1 | > 100 µM | > 100 µM | > 100 µM | > 100 µM | > 100 µM | > 100 µM | > 100 µM | > 100 µM | > 100 µM | > 100 µM
COC(=O)c1c(O)ccc2c1c1c(n2Cc2cccc(C)c2)C(=O)c2ccccc2C1=O | 26.3 µM | 26.1 µM | 24.5 µM | 52.7 µM | 25 µM | 31.3 µM | 30.2 µM | 45.9 µM | 27.9 µM | 28 µM
CCCC(=O)NC(Nc1ccc(S(=O)(=O)Nc2nc(C)cc(C)n2)cc1)(C(F)(F)F)C(F)(F)F | > 100 µM | > 100 µM | > 100 µM | > 100 µM | > 100 µM | > 100 µM | > 100 µM | > 100 µM | > 100 µM | > 100 µM
CCNC(=O)c1cc(/C=C/c2ccc([N+](=O)[O-])o2)nc2ccccc12 | 4.1 µM | > 100 µM | > 100 µM | > 100 µM | > 100 µM | > 100 µM | > 100 µM | > 100 µM | > 100 µM | > 100 µM
Cc1ccc2c(c1C)C(=O)/C(=C/c1ccccc1C(=O)O)C2 | > 100 µM | > 100 µM | > 100 µM | > 100 µM | > 100 µM | > 100 µM | > 100 µM | > 100 µM | > 100 µM | > 100 µM
O=C(OCCN=c1c2ccccc2ccc2ccccc12)c1ccc([N+](=O)[O-])cc1 | > 100 µM | > 100 µM | > 100 µM | > 100 µM | > 100 µM | > 100 µM | > 100 µM | > 100 µM | > 100 µM | > 100 µM
CC(C)C(OC(=O)c1ccc(NCc2cc(O)ccc2O)cc1)C(C)C | 7.45 µM | 1.65 µM | 2.33 µM | 6.16 µM | 6.14 µM | 21.7 µM | 15.4 µM | 0.484 µM | 7.06 µM | 11.1 µM
CN1CCN(CCCBr)CC1 | > 100 µM | > 100 µM | > 100 µM | > 100 µM | > 100 µM | > 100 µM | > 100 µM | > 100 µM | > 100 µM | > 100 µM
CCOC(=O)c1nc2ccc(C(F)(F)F)cc2nc1Oc1cc(OC)cc(OC)c1 | 79.1 µM | > 100 µM | > 100 µM | > 100 µM | > 100 µM | > 100 µM | > 100 µM | > 100 µM | > 100 µM | > 100 µM
